Where two headings read alike, the source gives them in different places.
How the values were obtained:
Test in all cases: intrinsic tryptophan fluorescence quenching titration (static quenching; Ka, n = […])
Format in all cases: binding
Details in all cases: read-out: Ka (M^-1) × 10^4 (converted)
[1] = target: T1, human holo-transferrin (HTF) (Homo sapiens, UniProt P02787)
T1 construct: gene TF

[2] = target: T1, human holo-transferrin (HTF); remark: listed apart in the source
[3] = target: T1, human holo-transferrin (HTF); remark: listed apart in the source

T1 sequence (P02787 20-698): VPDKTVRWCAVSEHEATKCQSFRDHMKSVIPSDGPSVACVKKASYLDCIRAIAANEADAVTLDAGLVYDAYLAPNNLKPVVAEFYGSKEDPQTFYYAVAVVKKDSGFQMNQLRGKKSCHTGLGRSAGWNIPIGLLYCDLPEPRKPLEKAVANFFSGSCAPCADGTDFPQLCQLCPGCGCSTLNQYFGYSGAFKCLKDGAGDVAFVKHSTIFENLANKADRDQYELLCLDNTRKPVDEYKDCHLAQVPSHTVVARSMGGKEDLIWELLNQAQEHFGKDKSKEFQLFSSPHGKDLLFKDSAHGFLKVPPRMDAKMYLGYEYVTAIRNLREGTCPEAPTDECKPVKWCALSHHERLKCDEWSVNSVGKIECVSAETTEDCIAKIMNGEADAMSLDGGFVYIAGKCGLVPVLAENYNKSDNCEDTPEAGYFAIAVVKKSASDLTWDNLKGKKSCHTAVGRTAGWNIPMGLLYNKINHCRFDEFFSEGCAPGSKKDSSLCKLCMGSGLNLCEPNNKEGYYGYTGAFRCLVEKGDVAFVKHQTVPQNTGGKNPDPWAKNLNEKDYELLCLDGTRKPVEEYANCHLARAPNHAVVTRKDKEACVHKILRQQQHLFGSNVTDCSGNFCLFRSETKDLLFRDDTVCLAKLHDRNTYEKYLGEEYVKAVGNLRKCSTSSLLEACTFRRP

## CO[C@H]1[C@H](O)[C@@H](O)[C@H](Oc2cc(C3CC(=O)c4cc(C)ccc4O3)ccc2O)O[C@@H]1CO (stereo partly drawn) [MFA, 4′-hydroxy-6-methylflavanone 3′-O-β-D-(4′’-O-methyl)-glucopyranoside]
[1]
  Kd: 89.3 µM

## CO[C@H]1[C@H](O)[C@@H](O)[C@H](Oc2cc(C3CC(=O)c4cc(CO)ccc4O3)ccc2O)O[C@@H]1CO (stereo partly drawn) [MFB, 4′-hydroxy-6-hydroxymethylflavanone 3′-O-β-D-(4′’-O-methyl)-glucopyranoside]
[2]
  Kd: 68 µM

## CO[C@H]1[C@H](O)[C@@H](O)[C@H](OCc2ccc3c(c2)C(=O)CC(c2ccc(O)cc2)O3)O[C@@H]1CO (stereo partly drawn) [MFC, 4′-hydroxyflavanone 6-methylene-O-β-D-(4′’-O-methyl)-glucopyranoside]
[3]
  Kd: 35.8 µM

— article PMC9609356, “Novel O-Methylglucoside Derivatives of Flavanone in Interaction with Model Membrane and Transferrin” (Membranes, 2022)
